Data on 19 compounds can be found in patent publication US5736539A, “Inhibitors of farnesyl-protein transferase” (Merck & Co., Inc., priority 1995, dated 1998).

Test [1] concerns the target Farnesyl-protein transferase (FPTase). Kind of test: In vitro inhibition of ras farnesyl transferase (Ras-CVLS, [3H]FPP). It is filed as biochemical, bovine brain or recombinant human. The conditions noted are these: Ras-CVLS 3.5 μM, 0.25 μM [3H]FPP; partially purified bovine or recombinant human enzyme; read-out: IC50 (concentration of the test compound which gives 50% inhibition of FPTase).
Method: Ras-CVLS at 3.5 μM, 0.25 μM [^3 H]FPP, and the indicated compounds were incubated with either a partially purified bovine enzyme preparation or a recombinant human enzyme preparation.

Test [2] has as its system Ras farnesylation in the v-ras cell line (viral Ha-ras p21). Kind of test: In vivo ras farnesylation assay (v-ras cell line, immunoprecipitation, percent inhibition of farnesyl transfer to protein). The conditions noted are these: 4 h at 37° C. then additional 20 h labelling with [35S]methionine. It is filed as cell-based. As for the experimental part: In vivo ras farnesylation assay
The cell line used in this assay was the v-ras line, which expressed viral Ha-ras p21. The assay was performed essentially as described in DeClue, J. E. et. al., Cancer Research 51,712-717, (1991). Cells in 10 cm dishes at 50-75% confluency were treated with the test compound (final concentration of solvent, methanol or dimethyl sulfoxide, was 0.1%). After 4 hours at 37° C., the cells were labelled in 3 ml methionine-free DMEM supplemeted with 10% regular DMEM, 2% fetal bovine serum and 400 μCi[^35 S]methionine (1000 Ci/mmol). After an additional 20 hours, the cells were lysed in 1 ml lysis buffer (1% NP40/20 mM HEPES, pH 7.5/5 mM MgCl2 /1 mM DTT/10 μg/ml aprotinen/2 μg/ml leupeptin/2 μg/ml antipain/0.5 mM PMSF) and the lysates cleared by centrifugation at 100,000×g for 45 min. Aliquots of lysates containing equal numbers of acid-precipitable counts were bought to 1 ml with IP buffer (lysis buffer lacking DTT) and immunoprecipitated with the ras-specific monoclonal antibody Y13-259 (Furth, M. E. et. al., J. Virol. 43, 294-304, (1982)). Following a 2 hour antibody incubation at 4° C., 200 μl of a 25% suspension of protein A-Sepharose coated with rabbit anti rat IgG was added for 45 min. The immunoprecipitates were washed four times with IP buffer ([…] HEPES, pH 7.5/1 mM EDTA/1% Triton X-100.0.5% deoxycholate/0.1%/SDS/0.1M NaCl) boiled in SDS-PAGE sample buffer and loaded on 13% acrylamide gels. When the dye front reached the bottom, the gel was fixed, soaked in Enlightening, dried and autoradiographed. The intensities of the bands corresponding to farnesylated and nonfarnesylated ras proteins were compared to determine the percent inhibition of farnesyl transfer to protein.

Test [3] relates to Ras farnesylation. The note with it: Hancock et al.; Casey et al.; Schafer et al., Science 245:379 (1989); cited from earlier work.

Structures can show the parent of a compound that is named as a salt.

With `COCC[C@H]1CN(C(=O)c2cccc3ccccc23)CCN1C[C@@H](N)CS` [Example 12, 1-[2(R)-Amino-3-mercaptopropyl]-4-(1-naphthoyl)-2(S)-(2-methoxyethyl)piperazine dihydrochloride], the IC50 in test [1] came to 0.005 µM; in test [2], 0.5 µM.
As for `CC[C@H](C)C(=O)O[C@H]1CCC=C2C=C[C@H](C)[C@H](CC[C@@H]3C[C@@H](O)CC(=O)O3)[C@H]21` [compactin], the “Inhibition of Ras farnesylation in vivo” value in test [3] is “Inhibition of Ras farnesylation in vivo has been demonstrated”.
As for `NC(CS)CN1CCN(C(=O)c2cccc3ccccc23)CC1C(=O)N1CCCCC1` [Example 30, 1-(2(R)-Amino-3-mercaptopropyl)-4-(1-naphthoyl)-2(S)-piperidylcarboxyl-4-piperazine dihydrochloride], the IC50 in test [1] amounted to 0.003 µM; in test [2], 0.5 µM.
For `CCCC[C@H]1CN(C(=O)c2cccc3ccccc23)CCN1C[C@@H](N)CS` [Example 16, 1-[2(R)-Amino-3-mercaptopropyl]-2(S)-n-butyl-4-(1-naphthoyl)piperazine dihydrochloride], in that order: 0.002 µM and 0.5 µM.
For `N[C@@H](CS)CN1CCCN(C(=O)c2cccc3ccccc23)CC1` [Example 28, 1-(2(R)-Amino-3-mercaptopropyl)-4-(1-naphthoyl)homopiperazine dihydrochloride], in that order: 0.021 µM and 10 µM.
Take `CC[C@H](C)C(=O)O[C@H]1C[C@@H](C)C=C2C=C[C@H](C)[C@H](CC[C@@H]3C[C@@H](O)CC(=O)O3)[C@H]21` [lovastatin]: in test [3], the “Inhibition of Ras farnesylation in vivo” value is “Inhibition of Ras farnesylation in vivo has been demonstrated”.
On to `Cc1cccc(C(=O)N2CCN(C[C@@H](N)CS)[C@@H](Cc3ccccc3)C2)c1C` [Example 6, 1-[2(R)-Amino-3-mercaptopropyl]-2(S)-benzyl-4-(2,3-dimethylbenzoyl)piperazine dihydrochloride], for which the IC50 in test [1] is 0.004 µM; in test [2], 0.5 to 1 µM.
The corresponding values for `COC(=O)C1CN(C[C@@H](N)CS)CCN1Cc1cccc2ccccc12` (stereo partly drawn) [Example 31, Methyl 4-(2(R)-amino-3-mercaptopropyl)-l-(1-naphthylmethyl)piperazine-2-carboxylate hydrochloride] are 0.0029 µM and 10 µM.
As to `COCC[C@H]1CN(C(=O)c2cccc3ccccc23)CCN1C[C@@H](N)CSSC[C@H](N)CN1CCN(C(=O)c2cccc3ccccc23)C[C@@H]1CCOC` [Example 21, bis-1, 1'-[2(R)-Amino-3-(2(S)-(2-methoxyethyl)-4-naphthoyl-1-piperazinyl)]propyl disulfide tetrahydrochloride], the IC50 in test [1] was found to be 0.001 µM.
On the same count and under the same terms, the same measure for `N[C@@H](CS)CN1CCN(C(=O)c2cccc3ccccc23)C[C@@H]1CCOCc1cccnc1` [Example 14, 1-[2(R)-Amino-3-mercaptopropyl]-2(S)-(2-(3-pyridylmethoxy)ethyl)-4-(1-naphthoyl)piperazine trihydrochloride]: 0.001 µM.
The same measure, in the same setting: the same measure for “1-[2(R)-Amino-3-mercaptopropyl]-4-(1-naphthoyl)-2(S)-(3-methoxy-1-propyl)piperazine dihydrochloride [Example 18]”: 0.001 µM; for `CCCOCC[C@H]1CN(C(=O)c2cccc3cccnc23)CCN1C[C@@H](N)CS` [Example 15, 1-[2(R)-Amino-3-mercaptopropyl]-2(S)-(2-(1-propoxy)ethyl)-4-(8-quinolinylcarbonyl)piperazine trihydrochloride]: 0.006 µM.
Regarding `CCCC[C@H]1CN(C(=O)c2cccc(C)c2C)CCN1C[C@@H](N)CS` [Example 3, 1-[2(R)-Amino-3-mercaptopropyl]-2(S)-n-butyl-4-(2,3-dimethylbenzoyl)piperazine dihydrochloride], the IC50 is 0.006 µM in test [1] and 5 µM in test [2].
For `CSCC[C@H]1CN(C(=O)c2cccc(C)c2C)CCN1C[C@@H](N)CS` [Example 8, 1-[2(R)-Amino-3-mercaptopropyl]-4-(2,3-dimethylbenzoyl)-2(S)-(2-methylthioethyl)piperazine dihydrochloride], in that order: 0.011 µM and 0.5 to 1 µM.
The corresponding values for `CCCOCC[C@H]1CN(C(=O)c2cccc3ccccc23)CCN1C[C@@H](N)CS` [Example 13, 1-[2(R)-Amino-3-mercaptopropyl]-2(S)-(2-(1-propoxy)ethyl)-4-(1-naphthoyl)piperazine dihydrochloride] are 0.003 µM and 0.5 µM.
Compound `COCC[C@H]1CN(C(=O)c2cccc(C)c2C)CCN1C[C@@H](N)CS` [Example 7, 1-[2(R)-Amino-3-mercaptopropyl]-4-(2,3-dimethylbenzoyl)-2(S)-(2-methoxyethyl)piperazine dihydrochloride] yielded an IC50 in test [2] of 0.5 to 1 µM.
With `CCCC[C@H]1CN(C(=O)c2cccc3c2OCC3)CCN1C[C@@H](N)CS` [Example 17, 1-[2(R)-Amino-3-mercaptopropyl]-2(S)-n-butyl-4-[7-(2,3-dihydrobenzofuranoyl)]piperazine dihydrochloride], the IC50 in test [1] came out at 0.006 µM; in test [2], 0.5 µM.
For `CCCC[C@H]1CN(C(=O)c2cccc3cccnc23)CCN1C[C@@H](N)CS` [Example 19, 1-(2(R)-Amino-3-mercaptopropyl)-2(S)-n-butyl-4-(8-quinolinylcarbonyl)piperazine trihydrochloride], in that order: 0.005 µM and 1 µM.
With `CC(=O)NCCCC[C@H]1CN(C(=O)c2cccc3ccccc23)CCN1C[C@@H](N)CS` [Example 27, 1-[2(R)-Amino-3-mercaptopropyl]-4-(1-naphthoyl)-2(S)-(4-acetamidobutyl)piperazine dihydrochloride], the IC50 in test [1] is 0.0035 µM; in test [2] it was 0.5 µM.
